# Assay results from article PMC4158420, “Crenactin from Pyrobaculum calidifontis is closely related to actin in structure and forms steep helical filaments” (Febs Letters, 2014).
# Biological target: T1, crenactin (Pc crenactin) (Pyrobaculum calidifontis, UniProt A3MWN5)
# T1 construct: gene cren-1; full length 1-432, codon-optimised, expressed in E. coli as His6-SUMO fusion, tag cleaved by SENP1 with no residues added or removed; helical filament in crystal
# Test: X-ray crystallography, […] Å
# Assay type: binding
# Conditions: crystals from 100 mM phosphate/citrate pH 4.2, 200 mM lithium sulfate, 20% PEG 1000; one ADP per subunit, 0 Mg; nucleotide cleft between domains I and II
# T1 sequence (A3MWN5 whole entry, the tested form may be a part): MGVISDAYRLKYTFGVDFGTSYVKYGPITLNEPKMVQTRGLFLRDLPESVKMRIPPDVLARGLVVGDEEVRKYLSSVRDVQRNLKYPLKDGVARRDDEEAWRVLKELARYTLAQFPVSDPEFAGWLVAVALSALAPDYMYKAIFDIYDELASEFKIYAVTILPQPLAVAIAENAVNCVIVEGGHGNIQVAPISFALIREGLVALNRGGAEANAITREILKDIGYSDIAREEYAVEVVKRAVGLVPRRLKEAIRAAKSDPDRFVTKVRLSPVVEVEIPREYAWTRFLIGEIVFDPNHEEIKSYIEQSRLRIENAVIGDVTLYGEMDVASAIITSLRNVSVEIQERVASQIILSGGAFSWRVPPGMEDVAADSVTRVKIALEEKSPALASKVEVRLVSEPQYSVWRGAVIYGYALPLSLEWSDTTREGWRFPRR
structure (smiles),measurement,value
Nc1ncnc2c1ncn2[C@@H]1O[C@H](COP(=O)(O)OP(=O)(O)O)[C@@H](O)[C@H]1O [ADP],"X-ray crystallography, 3.2 Å",one molecule of ADP was located and added in each crenactin subunit
